Biological target: EGFR (human) (UniProt P00533)
Sequence (P00533 whole entry, looked up): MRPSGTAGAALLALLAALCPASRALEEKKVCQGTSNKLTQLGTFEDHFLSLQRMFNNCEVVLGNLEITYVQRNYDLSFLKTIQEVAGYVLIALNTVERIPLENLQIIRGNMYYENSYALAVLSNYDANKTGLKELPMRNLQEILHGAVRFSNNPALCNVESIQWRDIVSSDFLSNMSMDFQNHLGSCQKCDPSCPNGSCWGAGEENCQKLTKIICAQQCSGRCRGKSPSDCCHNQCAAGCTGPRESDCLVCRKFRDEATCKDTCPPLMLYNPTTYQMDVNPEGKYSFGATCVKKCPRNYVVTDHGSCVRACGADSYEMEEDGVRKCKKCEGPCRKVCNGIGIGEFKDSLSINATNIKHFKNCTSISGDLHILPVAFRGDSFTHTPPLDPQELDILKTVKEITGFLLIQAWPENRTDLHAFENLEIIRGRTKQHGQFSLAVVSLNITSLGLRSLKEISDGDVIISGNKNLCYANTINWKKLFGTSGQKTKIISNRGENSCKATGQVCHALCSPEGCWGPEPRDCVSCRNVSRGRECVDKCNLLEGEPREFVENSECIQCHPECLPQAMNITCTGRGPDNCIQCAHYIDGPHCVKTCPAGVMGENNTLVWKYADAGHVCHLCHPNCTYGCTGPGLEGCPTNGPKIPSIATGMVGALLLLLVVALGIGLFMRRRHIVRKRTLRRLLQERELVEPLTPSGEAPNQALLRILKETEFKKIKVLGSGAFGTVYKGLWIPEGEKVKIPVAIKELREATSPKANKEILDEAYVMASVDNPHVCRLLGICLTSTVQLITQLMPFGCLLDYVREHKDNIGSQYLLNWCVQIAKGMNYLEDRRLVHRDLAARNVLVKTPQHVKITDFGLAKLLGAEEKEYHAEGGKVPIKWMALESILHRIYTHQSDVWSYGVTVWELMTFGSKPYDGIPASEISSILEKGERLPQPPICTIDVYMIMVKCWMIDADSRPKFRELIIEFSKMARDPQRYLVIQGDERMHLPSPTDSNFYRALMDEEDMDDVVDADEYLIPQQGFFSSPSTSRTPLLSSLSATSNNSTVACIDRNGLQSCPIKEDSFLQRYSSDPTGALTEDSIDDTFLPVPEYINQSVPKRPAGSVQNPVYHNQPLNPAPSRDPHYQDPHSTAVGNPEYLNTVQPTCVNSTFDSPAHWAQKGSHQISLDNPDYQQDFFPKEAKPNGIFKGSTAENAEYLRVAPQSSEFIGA

Row | Structure (SMILES) | IC50 [µM]
1 | Cc1[nH]c(/C=C2\C(=O)Nc3cccc(-c4cccc(C(F)(F)F)c4)c32)c(C)c1C(=O)N1CCN(C)CC1 | > 20
2 | Cc1cc(C(=O)N2CC[C@H](N(C)C)C2)c(/C=C2\C(=O)Nc3cccc(-c4ccc(F)cc4)c32)[nH]1 | > 20
3 | Cc1cc(C(=O)N2CC[C@@H](N(C)C)C2)c(/C=C2\C(=O)Nc3cccc(-c4ccc(Cl)cc4)c32)[nH]1 | > 20
4 | CCN(CC)CCNC(=O)c1c(C)[nH]c(/C=C2\C(=O)Nc3cccc(-c4ccc(OC(F)(F)F)cc4)c32)c1C | > 20
5 | Cc1cc(C(=O)NCCn2ccnn2)c(/C=C2\C(=O)Nc3cccc(-c4ccccc4F)c32)[nH]1 | > 20
6 | CCN(CC)CCNC(=O)c1c[nH]c(/C=C2\C(=O)Nc3cccc(-c4ccc(Br)cc4)c32)c1C | > 20
7 | CCN(CC)CCNC(=O)c1c(C)[nH]c(/C=C2\C(=O)Nc3cccc(-c4ccccc4)c32)c1C | > 20
8 | Cc1[nH]c(/C=C2\C(=O)Nc3cccc(-c4ccc(Br)cc4)c32)c(C)c1C(=O)N1C[C@@H](C)N[C@@H](C)C1 | > 20
9 | Cc1cc(C(=O)N2CC[C@H](N(C)C)C2)c(/C=C2\C(=O)Nc3cccc(-c4cccc(Cl)c4)c32)[nH]1 | > 20
10 | Cc1cc(C(=O)NCCN2CCCC2)c(/C=C2\C(=O)Nc3cccc(-c4ccc(F)c(Cl)c4)c32)[nH]1 | > 20
11 | Cc1cc(C(=O)N2C[C@@H](C)N[C@@H](C)C2)c(/C=C2\C(=O)Nc3cccc(-c4cccc(Cl)c4)c32)[nH]1 | > 20
12 | COc1ccc(-c2cccc3c2/C(=C/c2[nH]c(C)c(C(=O)N4C[C@@H](C)N[C@@H](C)C4)c2C)C(=O)N3)cc1 | > 20
13 | Cc1[nH]c(/C=C2\C(=O)Nc3cccc(-c4ccccc4F)c32)c(C)c1C(=O)N1CCN(C)CC1 | > 20
14 | COc1ccc(-c2cccc3c2/C(=C/c2[nH]c(C)cc2C(=O)NCCN2CCCC2)C(=O)N3)cc1 | > 20
15 | Cc1[nH]c(/C=C2\C(=O)Nc3cccc(-c4ccc(Cl)cc4)c32)c(C)c1C(=O)N1CCN(C)CC1 | > 20
16 | Cc1[nH]c(/C=C2\C(=O)Nc3cccc(-c4ccc(Br)cc4)c32)c(C)c1C(=O)N1CCN(C)CC1 | > 20
17 | Cc1cc(C(=O)NCCn2ccnn2)c(/C=C2\C(=O)Nc3cccc(-c4cccc(Cl)c4)c32)[nH]1 | > 20
18 | COc1cccc(-c2cccc3c2/C(=C/c2[nH]c(C)c(C(=O)NCCn4ccnn4)c2C)C(=O)N3)c1 | > 20
19 | Cc1[nH]c(/C=C2\C(=O)Nc3cccc(-c4ccc(F)cc4)c32)c(C)c1C(=O)N1CCN(C)CC1 | > 20
20 | COc1cccc(-c2cccc3c2/C(=C/c2[nH]c(C)c(C(=O)NCCN(C(C)C)C(C)C)c2C)C(=O)N3)c1 | > 20
21 | Cc1cc(C(=O)N2C[C@@H](C)N[C@@H](C)C2)c(/C=C2\C(=O)Nc3cccc(-c4ccc(Cl)cc4)c32)[nH]1 | > 20
22 | Cc1[nH]c(/C=C2\C(=O)Nc3cccc(-c4cccc(F)c4)c32)c(C)c1C(=O)NCCn1ccnn1 | > 20
23 | CCN(CC)CCNC(=O)c1c(C)[nH]c(/C=C2\C(=O)Nc3cccc(-c4cccc(OC)c4)c32)c1C | > 20
24 | Cc1cc(C(=O)NCCN2CCCC2)c(/C=C2\C(=O)Nc3cccc(-c4ccc(Br)cc4)c32)[nH]1 | > 20

Reference: the Kinase Knowledgebase extract (Sharma et al. 2016)
